Laboratory results reported in US20040087612A1, “Method of increasing lacrimal gland tearing by topical administration of tacrolimus” (priority 2002, published 2004).

System: dogs with naturally occurring keratoconjunctivitis sicca
Assay: Schirmer tear quantification in dogs treated topically with tacrolimus suspension
Type: in vivo, dog
Conditions: topical administration to the eye
From the text: In the present invention, tacrolimus is typically administered topically as an aqueous ophthalmic suspension that can be in the form of drops or an ointment. While the particular mixture and efficacious concentration of tacrolimus can be varied, one such suspension used in the treatment of a number of dogs included the following: i) Approximately 0.02 percent weight/volume tacrolimus crystals, ii) Approximately 0.2 percent weight/volume hydroxypropyl methylcellulose, iii) Approximately 0.4 percent weight/volume lactose, and iv) Sterile, deionized water mixed with the first three ingredients in an amount sufficient to achieve the above-noted concentrations. The following examples illustrate the effectiveness of the treatment method of the present invention. Specifically, eleven different dogs of varying breeds and ages were treated using the above solution for treatment periods ranging from 20-84 days. The eleven dogs had naturally occurring keratoconjunctivitis sicca. The subject dogs received one drop of the above-described tacrolimus-based suspension topically in the eye, twice a day. Prior to therapy, tear production was measured using standard Schirmer tear quantification. Corneal fibrosis, vascularization and pigmentation were measured using slit lamp biomicroscopy and fundus reflection during indirect ophthalmoscopy. […]

C=CC[C@@H]1/C=C(\C)C[C@H](C)C[C@H](OC)[C@H]2O[C@@](O)(C(=O)C(=O)N3CCCC[C@H]3C(=O)O[C@H](/C(C)=C/[C@@H]3CC[C@@H](O)[C@H](OC)C3)[C@H](C)[C@@H](O)CC1=O)[C@H](C)C[C@@H]2OC [tacrolimus, Tacrolimus]
effect on lacrimal gland tearing: increases lacrimal gland tearing
